Source: PMC4522657, “Identification of a DYRK1A Inhibitor that Induces Degradation of the Target Kinase using Co-chaperone CDC37 fused with Luciferase nanoKAZ” (Scientific Reports, 2015)

Key:
Test in all cases: Kinase panel, CaNDY 1 µM
Type in all cases: biochemical
Details in all cases: CaNDY 1 µM relative to DMSO
[1] = target: T1, CaMK2β (Homo sapiens, UniProt Q13554)
T1 construct: purchased Carna Biosciences

[2] = target: T2, MST1 (Homo sapiens, UniProt Q13043)
T2 construct: purchased Carna Biosciences

[3] = target: T3, PBK (Homo sapiens, UniProt Q96KB5)
T3 construct: purchased Carna Biosciences
T3 sequence (Q96KB5 whole entry): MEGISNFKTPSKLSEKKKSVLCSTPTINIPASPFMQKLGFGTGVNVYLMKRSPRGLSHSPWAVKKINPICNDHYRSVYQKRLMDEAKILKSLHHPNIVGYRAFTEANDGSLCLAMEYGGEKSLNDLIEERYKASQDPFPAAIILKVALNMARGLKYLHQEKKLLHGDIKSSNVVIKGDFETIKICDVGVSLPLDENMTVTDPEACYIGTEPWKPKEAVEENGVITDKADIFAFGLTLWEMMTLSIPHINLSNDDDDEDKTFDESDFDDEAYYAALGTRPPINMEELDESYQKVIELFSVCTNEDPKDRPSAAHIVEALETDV

T2 sequence (Q13043 whole entry): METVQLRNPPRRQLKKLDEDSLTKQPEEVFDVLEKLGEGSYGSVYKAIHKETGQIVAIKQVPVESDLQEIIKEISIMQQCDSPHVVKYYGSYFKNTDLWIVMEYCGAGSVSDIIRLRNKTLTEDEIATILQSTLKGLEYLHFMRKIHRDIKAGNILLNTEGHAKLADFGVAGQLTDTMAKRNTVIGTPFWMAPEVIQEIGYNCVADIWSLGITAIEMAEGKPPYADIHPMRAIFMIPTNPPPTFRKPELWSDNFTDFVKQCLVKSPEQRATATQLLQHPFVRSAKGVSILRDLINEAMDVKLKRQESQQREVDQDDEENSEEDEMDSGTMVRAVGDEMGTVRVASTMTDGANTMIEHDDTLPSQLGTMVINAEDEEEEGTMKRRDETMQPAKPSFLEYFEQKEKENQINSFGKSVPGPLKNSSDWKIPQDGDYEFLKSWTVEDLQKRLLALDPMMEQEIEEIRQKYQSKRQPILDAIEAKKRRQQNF
T1 sequence (Q13554 whole entry): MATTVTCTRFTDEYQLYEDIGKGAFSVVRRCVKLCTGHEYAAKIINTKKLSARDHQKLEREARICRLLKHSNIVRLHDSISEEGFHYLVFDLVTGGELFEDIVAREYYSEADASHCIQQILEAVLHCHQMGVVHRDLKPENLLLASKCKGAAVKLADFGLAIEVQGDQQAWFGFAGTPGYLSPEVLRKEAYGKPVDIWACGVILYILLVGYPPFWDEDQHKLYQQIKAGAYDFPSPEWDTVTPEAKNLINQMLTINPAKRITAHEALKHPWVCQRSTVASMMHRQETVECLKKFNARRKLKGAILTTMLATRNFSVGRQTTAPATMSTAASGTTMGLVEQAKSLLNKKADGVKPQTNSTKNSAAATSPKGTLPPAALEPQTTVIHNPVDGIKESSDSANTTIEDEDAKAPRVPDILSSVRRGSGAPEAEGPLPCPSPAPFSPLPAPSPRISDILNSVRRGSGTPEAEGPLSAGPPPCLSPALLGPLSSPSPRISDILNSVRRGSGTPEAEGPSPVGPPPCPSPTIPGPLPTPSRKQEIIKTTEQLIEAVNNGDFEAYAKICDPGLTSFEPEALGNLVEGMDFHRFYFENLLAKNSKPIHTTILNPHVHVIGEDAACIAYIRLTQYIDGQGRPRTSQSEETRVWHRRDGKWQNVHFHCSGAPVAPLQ

[H]/N=C1/NC(=O)C(=Cc2ccc3c(c2)CCO3)S1 [CaNDY, (Z)-5-[(2,3-dihydrobenzofuran-5-yl)methylene]-2-iminothiazolidin-4-one] was tested, and the remaining activity at 1 µM [1] was 98.2%, the “%Activity” value [2] was 101.2% and the remaining activity at 1 µM [3] was 98.4%.
